Molecules are shown by their SMILES.

The test has as its target T1, OPTN (Homo sapiens, UniProt Q96CV9).
T1 construct: protein for SPR
The experiment in a line: surface plasmon resonance. The test is classed as binding. The settings on record: rapid on-rate and off-rate kinetics; sensorgrams in Supplementary Fig. 7a, b. In general terms: Surface plasmon resonance follows binding to a sensor surface in real time, without labels.

T1 sequence (Q96CV9 whole entry): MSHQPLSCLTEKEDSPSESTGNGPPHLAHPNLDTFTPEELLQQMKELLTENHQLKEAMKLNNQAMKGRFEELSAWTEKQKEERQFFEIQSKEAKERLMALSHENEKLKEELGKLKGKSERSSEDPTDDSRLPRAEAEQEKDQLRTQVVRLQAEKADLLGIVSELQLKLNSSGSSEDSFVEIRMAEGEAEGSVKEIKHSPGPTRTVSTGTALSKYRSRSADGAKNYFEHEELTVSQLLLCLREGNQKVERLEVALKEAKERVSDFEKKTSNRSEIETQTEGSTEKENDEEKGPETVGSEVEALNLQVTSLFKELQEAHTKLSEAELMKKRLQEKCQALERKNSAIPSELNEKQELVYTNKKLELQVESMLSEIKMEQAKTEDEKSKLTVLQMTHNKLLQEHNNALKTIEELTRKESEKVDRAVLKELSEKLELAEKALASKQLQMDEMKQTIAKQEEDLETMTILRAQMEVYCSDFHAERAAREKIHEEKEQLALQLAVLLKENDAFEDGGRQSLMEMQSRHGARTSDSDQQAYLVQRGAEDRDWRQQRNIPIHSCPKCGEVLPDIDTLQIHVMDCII

`C[C@H]1O[C@@H](O[C@H]2CC[C@@]3(C)[C@@H](CC[C@]4(C)[C@@H]3C=C[C@]35OC[C@@]6(CCC(C)(C)C[C@H]63)[C@H](O)C[C@]54C)[C@]2(C)CO)[C@H](O)[C@@H](O[C@@H]2O[C@H](CO)[C@@H](O)[C@H](O)[C@H]2O)[C@H]1O` [Saikosaponin D]: the KD turned out to be 5.115 × e^−5 M.

The values are drawn from publication PMC8551263, “Optineurin modulates the maturation of dendritic cells to regulate autoimmunity through JAK2-STAT3 signaling” (Nature Communications, 2021).
